# Values of other authors in patent US6485736B1, “Variable release microcapsules” (priority 2000, dated 2002).
# Conditions: water at 25° C.
smiles,measurement,value
II,solubility,0.335 g in 1 dm^3 of water
